From patent publication US11970479B2, “3-(1H-pyrazol-4-yl)pyridine allosteric modulators of the M4 muscarinic acetylcholine receptor” (Merck Sharp & Dohme LLC, priority 2018, dated 2024) come the findings set out here.

The target in this assay is T1, human M4 muscarinic acetylcholine receptor (Homo sapiens, UniProt P08173).
T1 construct: expressed in transfected cells
T1 sequence (P08173 1-479): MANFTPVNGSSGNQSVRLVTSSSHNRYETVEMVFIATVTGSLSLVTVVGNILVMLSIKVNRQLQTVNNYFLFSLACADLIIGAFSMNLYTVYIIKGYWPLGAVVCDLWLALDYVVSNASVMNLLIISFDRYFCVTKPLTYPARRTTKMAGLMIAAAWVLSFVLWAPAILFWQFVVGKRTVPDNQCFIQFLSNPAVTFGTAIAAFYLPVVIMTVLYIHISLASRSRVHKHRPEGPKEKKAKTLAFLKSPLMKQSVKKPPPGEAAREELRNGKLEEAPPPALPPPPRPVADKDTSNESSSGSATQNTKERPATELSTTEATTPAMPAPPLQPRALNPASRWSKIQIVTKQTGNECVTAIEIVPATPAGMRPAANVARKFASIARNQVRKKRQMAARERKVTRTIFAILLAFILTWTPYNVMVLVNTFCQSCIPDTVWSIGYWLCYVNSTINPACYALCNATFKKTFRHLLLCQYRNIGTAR
As to the kind of experiment: human FLIPR-based M4 PAM assay (CHO-K1 cells with human M4 receptor and Gαqi5, calcium dye fluorescence, EC20 acetylcholine). Format: cell-based. Particulars: inflection point (IP) of the dose response curve, human M4 receptor/Gαqi5, acetylcholine at 20% of maximum response, read-out: M4PAM Hu IP. The protocol: (§1) In a typical experiment the M4 muscarinic acetylcholine receptor modulating activity of the compounds of the present invention was determined in accordance with the following experimental method. CHO-K1 cells stably transfected with human M4 receptor and chimeric G-protein Gαqi5 (Coward P, et al., Analytical Biochemistry, 270:242-248 (1999)) are thawed from liquid N2 storage, resuspended in growth medium, plated in black, clear bottom 384 well plates, and incubated 16-20 hours at 37° C., 5% CO2. On the day of assay, growth medium is removed, the cells are washed 2 times with wash buffer, and cells are incubated in dye loading buffer at 37° C., 5% CO2 for ˜1 hour. Following dye loading the cell plates are placed in a FLIPR Tetra instrument and while monitoring dye fluorescence (excitation […]), 10 uL of test substance at increasing concentrations is added, and fluorescence values are recorded for 4 min. Next, 10 uL of acetylcholine is added (final concentration calculated so as to achieve 20% of the maximum acetycholine response), and the fluorescence reading is continued for 3.5 min. In some cases, a third addition of acetylcholine (final concentration calculated to achieve 70% of the maximal acetylcholine response) is performed. The resulting dose response curves are fit to a 4 parameter logistic equation and the final result is determined as the inflection point (IP) of the curve
as §1, with “CHO-K1” for “In a typical experiment the M4 muscarinic acetylcholine receptor modulating activity of the compounds of the present invention was determined in accordance with the following experimental method. CHO-K1”, “Gαqi5” for “Gαqi5 (Coward P, et al., Analytical Biochemistry, 270:242-248 (1999))”, “performed.” for “performed. The resulting dose response curves are fit to a 4 parameter logistic equation and the final result is determined as the inflection point (IP) of the curve”

Turning to `COc1cc2ccc(-c3nc(C(F)F)ccc3-c3cnn(CC(C)(C)C)c3)cc2nn1` [Example 54, 7-{6-(difluoromethyl)-3-[1-(2,2-dimethylpropyl)-1H-pyrazol-4-yl]pyridin-2-yl}-3-methoxycinnoline], the EC50 amounted to 53 nM.
The figure for `CC(C)(C)Cn1cc(-c2cc(F)cnc2-c2ccc3cccnc3c2)cn1` [Example 55, 7-{3-[1-(2,2-dimethylpropyl)-1H-pyrazol-4-yl]-5-fluoropyridin-2-yl}quinoline] is 108 nM.
In the case of `Cc1nc(-c2ccc3cccnc3c2)c(-c2cnn(CC3(C(F)(F)F)CC3)c2)cc1C#N` [Example 56, 2-methyl-6-quinolin-7-yl-5-(1-{[1-(trifluoromethyl)cyclopropyl]methyl}-1H-pyrazol-4-yl)pyridine-3-carbonitrile], the EC50 is 275 nM.
Regarding `COc1cc2ccc(-c3nc(C)c(C#N)cc3-c3cnn(CC4(C(F)(F)F)CC4)c3)cc2nn1` [Example 57, 6-(3-methoxycinnolin-7-yl)-2-methyl-5-(1-{[1-(trifluoromethyl)cyclopropyl]methyl}-1H-pyrazol-4-yl)pyridine-3-carbonitrile], the EC50 came to 243 nM.
Turning to `CC(C)(C)Cn1ncc(-c2ccc(C#N)nc2-c2ccc3cccnc3c2)c1F` [Example 58, 5-[1-(2,2-dimethylpropyl)-5-fluoro-1H-pyrazol-4-yl]-6-quinolin-7-ylpyridine-2-carbonitrile], the EC50 worked out at 51 nM.
For `N#Cc1ccc(-c2cnn(CC3(C(F)(F)F)CC3)c2F)c(-c2ccc3cccnc3c2)n1` [Example 59, 5-(5-fluoro-1-{[1-(trifluoromethyl)cyclopropyl]methyl}-1H-pyrazol-4-yl)-6-quinolin-7-ylpyridine-2-carbonitrile], the EC50 amounted to 57 nM.
Take `CC(C)C(=O)Cn1cc(-c2ccc(C#N)nc2-c2ccc3cccnc3c2)cn1` [Example 60, 5-[1-(3-methyl-2-oxobutyl)-1H-pyrazol-4-yl]-6-quinolin-7-ylpyridine-2-carbonitrile]: the EC50 was found to be 181 nM.
On to `CC(C)C(F)(F)Cn1cc(-c2ccc(C#N)nc2-c2ccc3cccnc3c2)cn1` [Example 61, 5-[1-(2,2-difluoro-3-methylbutyl)-1H-pyrazol-4-yl]-6-quinolin-7-ylpyridine-2-carbonitrile], for which the EC50 came to 26 nM.
Regarding `CC(C)CCn1cc(-c2cccnc2-c2ccc3ccc(Cl)nc3c2)cn1` [Example 62, 2-chloro-7-{3-[1-(3-methylbutyl)-1H-pyrazol-4-yl]pyridin-2-yl}quinoline], the EC50 was found to be 84 nM.
The same measure for `CC(C)CCn1cc(-c2ccc(Cl)nc2-c2ccc3cccnc3c2)cn1` [Example 63, 7-{6-chloro-3-[1-(3-methylbutyl)-1H-pyrazol-4-yl]pyridin-2-yl}quinoline]: 26 nM; for `CC(C)CCn1cc(-c2c(Cl)ccnc2-c2ccc3cccnc3c2)cn1` [Example 64, 7-{4-chloro-3-[1-(3-methylbutyl)-1H-pyrazol-4-yl]pyridin-2-yl}quinoline]: 295 nM; for `CC(C)CCn1cc(-c2ccc(F)nc2-c2ccc3cccnc3c2)cn1` [Example 65, 7-{6-fluoro-3-[1-(3-methylbutyl)-1H-pyrazol-4-yl]pyridin-2-yl}quinoline]: 95 nM.
Regarding `CC(C)CCn1cc(-c2ccc(C#N)nc2-c2ccc3cccnc3c2)cn1` [Example 66, 5-[1-(3-methylbutyl)-1H-pyrazol-4-yl]-6-quinolin-7-ylpyridine-2-carbonitrile], the EC50 is 24 nM.
The same measure for `CC(C)CCn1cc(-c2ccc(C3=CCOCC3)nc2-c2ccc3cccnc3c2)cn1` [Example 67, 7-{6-(3,6-dihydro-2H-pyran-4-yl)-3-[1-(3-methylbutyl)-1H-pyrazol-4-yl]pyridin-2-yl}quinoline]: 121 nM.
As for `CC(C)CCn1cc(-c2ccc(-c3ccnn3C)nc2-c2ccc3cccnc3c2)cn1` [Example 68, 7-{3-[1-(3-methylbutyl)-1H-pyrazol-4-yl]-6-(1-methyl-1H-pyrazol-5-yl)pyridin-2-yl}quinoline], the EC50 is 118 nM.
For `CCCc1ccc(-c2cnn(CCC(C)C)c2)c(-c2ccc3cccnc3c2)n1` [Example 69, 7-{3-[1-(3-methylbutyl)-1H-pyrazol-4-yl]-6-propylpyridin-2-yl}quinoline], the EC50 is 185 nM.
For `CC(C)CCn1cc(-c2ccc(C3CC3)nc2-c2ccc3cccnc3c2)cn1` [Example 70, 7-{6-(cyclopropyl)-3-[1-(3-methylbutyl)-1H-pyrazol-4-yl]pyridin-2-yl}quinoline], the EC50 was 233 nM.
The figure for `Cc1cnc(-c2ccc3cccnc3c2)c(-c2cnn(CCC(C)C)c2)c1` [Example 71, 7-{5-methyl-3-[1-(3-methylbutyl)-1H-pyrazol-4-yl]pyridin-2-yl}quinoline] is 222 nM; for `C=Cc1ccc(-c2cnn(CCC(C)C)c2)c(-c2ccc3cccnc3c2)n1` [Example 72, 7-{6-ethenyl-3-[1-(3-methylbutyl)-1H-pyrazol-4-yl]pyridin-2-yl}quinoline] it is 191 nM.
Take `CCc1ccc(-c2cnn(CCC(C)C)c2)c(-c2ccc3cccnc3c2)n1` [Example 73, 7-{6-ethyl-3-[1-(3-methylbutyl)-1H-pyrazol-4-yl]pyridin-2-yl}quinoline]: the EC50 stood at 140 nM.
On to `CC(C)CCn1cc(-c2ccc(Br)nc2-c2ccc3cccnc3c2)cn1` [Example 74, 7-{6-bromo-3-[1-(3-methylbutyl)-1H-pyrazol-4-yl]pyridin-2-yl}quinoline], for which the EC50 was found to be 39 nM.
Turning to `COCCOc1ccc(-c2cnn(CCC(C)C)c2)c(-c2ccc3cccnc3c2)n1` [Example 75, 7-{6-(2-methoxyethoxy)-3-[1-(3-methylbutyl)-1H-pyrazol-4-yl]pyridin-2-yl}quinoline], the EC50 was determined as 123 nM.
Consider `CSc1cnc(-c2ccc3cccnc3c2)c(-c2cnn(CCC(C)C)c2)c1` [Example 76, 7-{3-[1-(3-methylbutyl)-1H-pyrazol-4-yl]-5-(methylsulfanyl)pyridin-2-yl}quinoline], for which the EC50 was 63 nM.
`COc1cc2ccc(-c3nc(C)ccc3-c3cnn(CCCC(F)(F)F)c3)cc2nn1` [Example 77, 3-methoxy-7-{6-methyl-3-[1-(4,4,4-trifluorobutyl)-1H-pyrazol-4-yl]pyridin-2-yl}cinnoline]: the EC50 came to 271 nM.
As for `COc1cc2ccc(-c3nc(C)ccc3-c3cnn(CC4CC(F)(F)C4)c3)cc2nn1` [Example 78, 7-(3-{1-[(3,3-difluorocyclobutyl)methyl]-1H-pyrazol-4-yl}-6-methylpyridin-2-yl)-3-methoxycinnoline], the EC50 came to 190 nM.
As for `COc1cc2ccc(-c3nc(C)ccc3-c3cnn(CCC4CC(F)(F)C4)c3)cc2nn1` [Example 79, 7-(3-{1-[2-(3,3-difluorocyclobutyl)ethyl]-1H-pyrazol-4-yl}-6-methylpyridin-2-yl)-3-methoxycinnoline], the EC50 came out at 166 nM.
`COc1cc2ccc(-c3nc(C)ccc3-c3cnn(CCCC(F)=C(F)F)c3)cc2nn1` [Example 80, 3-methoxy-7-{6-methyl-3-[1-(4,5,5-trifluoropent-4-en-1-yl)-1H-pyrazol-4-yl]pyridin-2-yl}cinnoline]: the EC50 was 154 nM.
The figure for `COc1cc2ccc(-c3nc(C)ccc3-c3cnn(CCC4CCOC4)c3)cc2nn1` (stereo not drawn) [Example 81, 3-methoxy-7-(6-methyl-3-{1-[2-(tetrahydrofuran-3-yl)ethyl]-1H-pyrazol-4-yl}pyridin-2-yl)cinnoline] is 228 nM; for `COc1cc2ccc(-c3nc(C)ccc3-c3cnn(CC4CCOC4)c3)cc2nn1` (stereo not drawn) [Example 82, 3-methoxy-7-{6-methyl-3-[1-(tetrahydrofuran-3-ylmethyl)-1H-pyrazol-4-yl]pyridin-2-yl}cinnoline] it is 180 nM; for `COc1cc2ccc(-c3nc(C)ccc3-c3cnn(CC4CC5(CCC5)C4)c3)cc2nn1` [Example 83, 3-methoxy-7-{6-methyl-3-[1-(spiro[3.3]hept-2-ylmethyl)-1H-pyrazol-4-yl]pyridin-2-yl}cinnoline] it is 99 nM.
